In paper PMC8056388 (ACS Chemical Biology, 2021):
Values belong to the compound of their own block, whether it stands above or below them.

Legend:
WT PqsE [1] = molecular target: T1, WT PqsE (Pseudomonas aeruginosa, UniProt P20581); assay: biochemical; type: binding
PqsE S160A = PqsE S160A (Pseudomonas aeruginosa, UniProt P20581, S160A); type: binding
PqsE S285A [2] = molecular target: T2, PqsE S285A (Pseudomonas aeruginosa, UniProt P20581, S285A); type: binding
PqsE S285A [3] = molecular target: T2, PqsE S285A; type: biochemical
P. aeruginosa PA14 = type: cell-based; settings: P. aeruginosa PA14 cultures, 100 μM compound, 17 h
PqsE-RhlR interaction = PqsE-RhlR interaction (Pseudomonas aeruginosa, UniProt P20581); assay: PqsE-RhlR interaction pull-down assay; type: binding; settings: PqsE:compound 1:1 and 1:2 molar ratios, SDS-PAGE
hcnA = assay: qRT-PCR of hcnA transcript; settings: P. aeruginosa PA14, 100 μM compound
phzH = assay: qRT-PCR of phzH transcript; settings: P. aeruginosa PA14, 100 μM compound
WT PqsE [4] = molecular target: T1, WT PqsE; assay: Fluorescence polarization binding of BB562; settings: purified WT PqsE
P. aeruginosa PAO1 = settings: cited from earlier work

Compound: O=C(Nc1cccc(-c2ccn[nH]2)c1)c1cccc2cn[nH]c12 [BB391]
EC50 (WT PqsE [1]): 255 nM
ΔTm PqsE S160A (PqsE S160A): 5.0 °C
ΔTm PqsE S285A (PqsE S285A [2]): lost the ability to shift the Tm
projected IC50 for PqsE S285A relative to WT PqsE (PqsE S285A [3]): at least a log unit higher
pyocyanin production (P. aeruginosa PA14): neither molecule caused any decrease in pyocyanin production
suppression of the interaction between PqsE and RhlR (PqsE-RhlR interaction): neither BB391 nor BB393 suppressed the interaction
transcription of hcnA (hcnA): neither molecule drove altered transcription
transcription of phzH (phzH): neither molecule drove altered transcription

apparent binding constant (Kapp), in words (WT PqsE [4]): midnanomolar range
Compound: O=C(NCCCn1cc(-c2ccc(NC(=O)c3cccc4cn[nH]c34)cc2)nn1)c1ccc2c(c1)C(=O)OC21c2ccc(O)cc2Oc2cc(O)ccc21 [BB562]

Compound: O=C(O)c1ccccc1-c1cccnc1 [C1, 2-(pyridin-3′-yl) benzoic acid, reference compound]
ΔTm PqsE S160A (PqsE S160A): 12.1 °C
ΔTm PqsE S285A (PqsE S285A [2]): 8.5 °C
pyocyanin production (P. aeruginosa PAO1): did not affect pyocyanin production
